According to patent US11795510B2, “Identification of epigenomic reprogramming in cancer and uses thereof” (The Johns Hopkins University, priority 2016, dated 2023):

System: A38Lg cells
Test: RNA-seq of control (DMSO) and 6AN treated cells, differentially expressed genes
Assay type: cell-based, human
Protocol: RNAi experiments were performed with siRNA transfections (Oligofectamine, Life Technologies) using negative control siRNA (Sigma, SIC001) and pre-designed siRNA oligonucleotides against indicated genes in parallel (Sigma, PGD: SASI_Hs02 00334150, CDH2: SASI_Hs01_00153995, TOP2B: SASI_Hs02_00311874). siRNAs against mutant KRAS^G12V (CUACGCCAACAGCUCCAAC) (SEQ ID NO:1) were custom designed. Cells were incubated with siRNAs for 4 days after transfection and harvested. For drug treatments in 2-D, cells were grown to 70-80% confluency and treated for 3 days with 250 uM 6AN or DMSO negative control.
Tests for statistical significance (two-tailed students t-test) were performed on data collected from technical replicate (performed in parallel at the same time) or biological replicate (performed at different times) experiments as indicated in the figure legends using excel software for western blot densitometry, MTT assays, and tumor measurements. Whole genome bisulfite sequencing and RNA-seq were performed with HiSeq instruments (Illumina) as described in Hansen et al. (Increased methylation variation in epigenetic domains across cancer types. Nat Genet 43, 768-75 (2011)). ChIP assays were performed as previously described for fixed cells with sonication. For ChIP-qPCR, equal amounts of paired input/IP DNA were amplified by real-time PCR (Roche LightCycler96) and fold enrichments calculated. Primer sequences are listed in Supplementary Table 11. […] IP sequencing reads were normalized to their corresponding inputs. Sequencing procedures, bioinformatics methods including domain calls, and statistical analyses are described in detail within the supplementary methods section.
RNA-Seq data processing. 100 bp paired-end HiSeq2000 sequencing reads were aligned against human genome (hg19) by OSA (version 2.0.1) with default parameters. After alignment, only uniquely aligned reads were kept for further analysis. Gene annotation information was downloaded from ENSEMBL (ensembl.com, release 66). Reads count for each gene of all samples were estimated using HTSeq (huber.embl.de/users/anders/HTSeq/doc/overview.html) and then were used to identify differentially expressed (DE) genes using DESeq package. Genes with FDR<0.01 and fold-change>1.5 were considered DE genes.

[1] = genes down in A38Lg vs A38Per and down in 6AN vs DMSO treated A38Lg, RNA-seq DE genes
[2] = genes down in A38Lg vs A38Per and up in 6AN vs DMSO treated A38Lg, RNA-seq DE genes
[3] = genes recurrently down vs. A38Per and down in 6AN treated A38Lg cells, out of all 6AN down genes
[4] = genes recurrently down vs. A38Per and down in 6AN treated A38Lg cells, out of all recurrent down genes
[5] = genes recurrently down vs. A38Per and up in 6AN treated A38Lg cells, out of all 6AN up genes
[6] = genes recurrently down vs. A38Per and up in 6AN treated A38Lg cells, out of all recurrent down genes
[7] = genes recurrently up across all samples vs. A38Per and down in 6AN vs. DMSO treated A38Lg cells, out of all 6AN down genes
[8] = genes recurrently up vs. A38Per and down in 6AN treated A38Lg cells, out of all recurrent up genes
[9] = genes recurrently up vs. A38Per and up in 6AN treated A38Lg cells, out of all recurrent up genes
[10] = genes up in A38Lg vs A38Per and down in 6AN vs DMSO treated A38Lg, RNA-seq DE genes
[11] = genes up in A38Lg vs A38Per and up in 6AN vs DMSO treated A38Lg, RNA-seq DE genes

NC(=O)c1ccc(N)nc1 [6AN, 6-aminonicotinamide]
Coregulated/6AN down (38Lg down/6AN down): coregulated genes / all 6AN down genes [1]: 277/1968
Coregulated/38Lg down (38Lg down/6AN down): coregulated genes / all 38Lg down genes [1]: 277/4402
Coregulated/6AN down (38Lg down/6AN down), percent (genes down in A38Lg vs A38Per and down in 6AN vs DMSO treated A38Lg, share of 6AN down genes): (14%)
Coregulated/38Lg down (38Lg down/6AN down), percent (genes down in A38Lg vs A38Per and down in 6AN vs DMSO treated A38Lg, share of 38Lg down genes): (0.06%)
Coregulated/6AN up (38Lg down/6AN up): coregulated genes / all 6AN up genes [2]: 915/2192
Coregulated/38Lg down (38Lg down/6AN up): coregulated genes / all 38Lg down genes [2]: 915/4402
Coregulated/6AN up (38Lg down/6AN up), percent (genes down in A38Lg vs A38Per and up in 6AN vs DMSO treated A38Lg, share of 6AN up genes): (42%)
Coregulated/38Lg down (38Lg down/6AN up), percent (genes down in A38Lg vs A38Per and up in 6AN vs DMSO treated A38Lg, share of 38Lg down genes): (21%)
Recurrent Down/6AN Down: Coregulated/6AN down (gene count ratio) [3]: 111/1968
Recurrent Down/6AN Down: Coregulated/6AN down (percent) [3]: (0.06%)
Recurrent Down/6AN Down: Coregulated/Recurrent down (gene count ratio) [4]: 111/1842
Recurrent Down/6AN Down: Coregulated/Recurrent down (percent) [4]: (0.06%)
Recurrent Down/6AN Up: Coregulated/6AN up (gene count ratio) [5]: 332/2192
Recurrent Down/6AN Up: Coregulated/6AN up (percent) [5]: (15%)
Recurrent Down/6AN Up: Coregulated/Recurrent down (gene count ratio) [6]: 332/1842
Recurrent Down/6AN Up: Coregulated/Recurrent down (percent) [6]: (18%)
Recurrent Up/6AN Down: Coregulated/6AN down (gene count ratio) [7]: 255/1968
Recurrent Up/6AN Down: Coregulated/6AN down (percent) [7]: (13%)
Recurrent Up/6AN Down: Coregulated/Recurrent up (gene count ratio) [8]: 255/891
Recurrent Up/6AN Down: Coregulated/Recurrent up (percent) [8]: (28.6%)
Recurrent Up/6AN Up: Coregulated/6AN up (gene count ratio) (genes recurrently up vs. A38Per and up in 6AN treated A38Lg cells, out of all 6AN up genes): 82/2192
Recurrent Up/6AN Up: Coregulated/Recurrent up (gene count ratio) [9]: 82/891
Recurrent Up/6AN Up: Coregulated/Recurrent up (percent) [9]: (9%)
Coregulated/6AN down (38Lg up/6AN down): coregulated genes / all 6AN down genes [10]: 1032/1968
Coregulated/38Lg up (38Lg up/6AN down): coregulated genes / all 38Lg up genes [10]: 1032/4368
Coregulated/6AN down (38Lg up/6AN down), percent (genes up in A38Lg vs A38Per and down in 6AN vs DMSO treated A38Lg, share of 6AN down genes): (52%)
Coregulated/38Lg up (38Lg up/6AN down), percent (genes up in A38Lg vs A38Per and down in 6AN vs DMSO treated A38Lg, share of 38Lg up genes): (24%)
Coregulated/6AN up (38Lg up/6AN up): coregulated genes / all 6AN up genes [11]: 379/2192
Coregulated/38Lg up (38Lg up/6AN up): coregulated genes / all 38Lg up genes [11]: 379/4368
Coregulated/6AN up (38Lg up/6AN up), percent (genes up in A38Lg vs A38Per and up in 6AN vs DMSO treated A38Lg, share of 6AN up genes): (17%)
Coregulated/38Lg up (38Lg up/6AN up), percent (genes up in A38Lg vs A38Per and up in 6AN vs DMSO treated A38Lg, share of 38Lg up genes): (0.09%)
